Laboratory results: patent US8084455B2, “Use of a kinase inhibitor for the treatment of particular resistant tumors” (Nerviano Medical Sciences S.r.l., priority 2006, dated 2011)
Positions count from the first letter of the chain named. Where two headings read alike, the source gives them in different places.

Key:
[1] = system: Imatinib-resistant ABL mutants; details: literature; cited from earlier work
[2] = target: T1, Wild-type ABL kinase domain (Homo sapiens, UniProt P00519); details: Table 1; displacement of probe 3.1 at 0.12 μM, 10 nM enzyme, average of three experiments
T1 sequence (P00519 229-512): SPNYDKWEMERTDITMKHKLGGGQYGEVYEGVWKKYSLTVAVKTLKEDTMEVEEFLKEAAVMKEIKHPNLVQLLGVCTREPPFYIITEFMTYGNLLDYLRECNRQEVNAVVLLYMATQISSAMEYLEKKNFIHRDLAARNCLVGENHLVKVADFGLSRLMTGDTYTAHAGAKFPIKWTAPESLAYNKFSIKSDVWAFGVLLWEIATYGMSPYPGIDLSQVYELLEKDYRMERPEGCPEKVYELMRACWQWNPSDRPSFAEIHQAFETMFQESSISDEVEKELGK
Procedure: (§1) In all experiments, the fluorescence signal was measured using a Fusion α-FP HT plate reader (Packard). Data analysis was performed using the Dynafit software.
(§2) In particular, titration data were fitted to the following equilibria: Enzyme+probe<==>Complex Enzyme-probe, while displacement data were fitted to the following equilibria: Enzyme+probe<==>Complex Enzyme-probe, Enzyme+Compound<==>Complex Enzyme-Compound, whereby binding of probe and compound on the enzyme are mutually exclusive (pure competitive mechanism).
(§3) The mixture of enzyme and probe was added to the previously diluted compounds. […] In agreement, affinity binding constants (KD) were determined by fitting with a pure competitive mechanism. KD values, are the average of three independent experiments.
(§4) The displacement assay was performed as described before, with 3 μM as the highest inhibitor concentration tested with dilution steps 1:1.5.

[3] = target: T2, T315I ABL mutant kinase domain (Homo sapiens, UniProt P00519, T315I); details: Table 1; displacement of probe 3.1 at 0.42 μM, 10 nM enzyme, average of three experiments
T2 sequence (P00519 229-512 T315I): T1 sequence (P00519 229-512) with T87I

[4] = target: T2, T315I ABL mutant kinase domain; details: Table 4; displacement of probe 3.2 at 0.2 μM
[5] = target: T3, Wild-type ABL 0P (unphosphorylated ABL kinase domain) (Homo sapiens, UniProt P00519); details: Table 4; displacement of probe 3.2 at 2 μM
T3 sequence (P00519 229-512): T1 sequence (P00519 229-512)
Procedure: as §2, §3
(§5) The applied conditions were the same except for the saturating probe concentration (2, 3.3 and 0.2 μM for ABL wild-type unphosphorylated (0P), wild-type and T315I, respectively) and the probe final concentration (2, 3.3 and 0.2 μM for ABL wild-type unphosphorylated (0P), wild-type and T315I, respectively).
(§6) The displacement assay was performed as described before, with 3 μM as the highest inhibitor concentration tested.

[6] = target: T1, Wild-type ABL kinase domain; details: Table 4; displacement of probe 3.2 at 3.3 μM
Procedure: as §2, §3, §5, §6

[7] = target: T3, Wild-type ABL 0P (unphosphorylated ABL kinase domain); details: Table 1; displacement of probe 3.1 at 0.15 μM, 10 nM enzyme, average of three experiments
Procedure: as §1, §2, §3, §4

| Kd [2] [µM] | Kd [3] [µM] | Kd [4] [µM] | Kd [5] [µM] | Kd [6] [µM] | Kd [7] [µM] | Compound | activity against Imatinib-resistant ABL mutants [1] |
| --- | --- | --- | --- | --- | --- | --- | --- |
|  |  |  |  |  |  | Cc1cn(-c2cc(NC(=O)c3ccc(C)c(Nc4nccc(-c5cccnc5)n4)c3)cc(C(F)(F)F)c2)cn1 [AMN107] | active against the majority |
| 9 ± 1.9 | 2 ± 0.21 | 2.61 ± 0.9 | 6.6 ± 1.6 | 4.8 ± 1 | 9.5 ± 3.4 | Nc1ncnc2c1ncn2[C@@H]1O[C@H](COP(=O)(O)OP(=O)(O)OP(O)(O)=S)[C@@H](O)[C@H]1O [ATPγS] |  |
